Among the data in patent publication US6825350B2, “Sulfonamide and sulfamide substituted imidazoquinolines and methods for the treatment of periodontal disease using these and other immune response modifiers” (3M Innovative Properties Company, priority 1999, dated 2004) are minimal effective concentration values, retold here.

One assay relates to interferon (α). Nature of the assay: Cytokine induction in human cells: interferon (α) by ELISA. Type of assay: cell-based. The following applies: human PBMCs, 18 to 24 hours incubation, ELISA of culture supernatant, read-out: Lowest Effective Concentration (μM) Interferon. On the technique in general: In an ELISA, binding on a coated surface is turned into a signal by an enzyme label.

Assay [1] has as its system tumor necrosis factor (α). Nature of the assay: Cytokine induction in human cells: tumor necrosis factor (α) by ELISA. The following applies: human PBMCs, 18 to 24 hours incubation, ELISA of culture supernatant, read-out: Lowest Effective Concentration (μM) Tumor Necrosis Factor. The format is cell-based.

Read-outs that look alike come from different tables or passages of the source.

`COCCc1nc2c(N)nc3ccccc3c2n1CCCCNS(=O)(=O)Cc1ccccc1` [Example 113]: the minimal effective concentration with interferon (α) (Homo sapiens, PBMC) was 0.0001 µM; in assay [1] (Homo sapiens, PBMC), over 10 µM.

With `COCCc1nc2c(N)nc3ccccc3c2n1CCCCNS(=O)(=O)c1ccccc1F` [Example 120], the minimal effective concentration in the assay with interferon (α) (Homo sapiens, PBMC) stood at 0.0001 µM; in assay [1] (Homo sapiens, PBMC), 1 µM.

For `COCCc1nc2c(N)nc3ccccc3c2n1CCCCNS(=O)(=O)c1ccc(F)cc1` [Example 121], the minimal effective concentration in the assay with interferon (α) (Homo sapiens, PBMC) amounted to 0.0001 µM; in assay [1] (Homo sapiens, PBMC), 10 µM.

`CCCCc1nc2c(N)nc3ccccc3c2n1CCCCNS(=O)(=O)c1cccc(F)c1` [Example 95]: the minimal effective concentration with interferon (α) (Homo sapiens, PBMC) was found to be 0.001 µM; in assay [1] (Homo sapiens, PBMC), 1 µM.

For `CCCCc1nc2c(N)nc3ccccc3c2n1CCNS(=O)(=O)c1cccs1` [Example 19], the minimal effective concentration with interferon (α) (Homo sapiens, PBMC) was determined as 0.12 µM; in assay [1] (Homo sapiens, PBMC), 3.33 µM.

For `CCCCc1nc2c(N)nc3ccccc3c2n1CCCCNS(=O)(=O)c1cccc(C(F)(F)F)c1` [Example 80], the minimal effective concentration in the assay on interferon (α) (Homo sapiens, PBMC) was found to be 1 µM; in assay [1] (Homo sapiens, PBMC) it was 10 µM.

With `CCCCc1nc2c(N)nc3ccccc3c2n1CCCCNS(=O)(=O)c1cccc(OC)c1` [Example 104], the minimal effective concentration in the assay with interferon (α) (Homo sapiens, PBMC) was 0.01 µM; in assay [1] (Homo sapiens, PBMC), over 10 µM.

Consider `CCCCc1nc2c(N)nc3ccccc3c2n1CCCCNS(=O)(=O)c1ccc(C(=O)O)cc1` [Example 84], for which the minimal effective concentration amounted to 1 µM with interferon (α) (Homo sapiens, PBMC) and 10 µM in assay [1] (Homo sapiens, PBMC).

As for `CCCCc1nc2c(N)nc3ccccc3c2n1CCCCNS(=O)(=O)CCC` [Example 51], the minimal effective concentration in the assay on interferon (α) (Homo sapiens, PBMC) came to 0.0015 µM; in assay [1] (Homo sapiens, PBMC), 0.37 µM.

Regarding `CCCCc1nc2c(N)nc3ccccc3c2n1CCNS(=O)(=O)c1ccc(C)cc1` [Example 23], the minimal effective concentration in the assay on interferon (α) (Homo sapiens, PBMC) is 0.12 µM; in assay [1] (Homo sapiens, PBMC), 10 µM.

Take `CCCCCCCCS(=O)(=O)NCCn1c(CCCC)nc2c(N)nc3ccccc3c21` [Example 18]: the minimal effective concentration is 3.33 µM with interferon (α) (Homo sapiens, PBMC) and over 30 µM in assay [1] (Homo sapiens, PBMC).

In the case of `CCCCc1nc2c(N)nc3ccccc3c2n1CCCCNS(=O)(=O)c1c(C)cc(C)cc1C` [Example 45], the minimal effective concentration with interferon (α) (Homo sapiens, PBMC) is 0.37 µM; in assay [1] (Homo sapiens, PBMC) it was over 30 µM.

As for `CCCCc1nc2c(N)nc3ccccc3c2n1CCCCNS(=O)(=O)c1c(C(C)C)cc(C(C)C)cc1C(C)C` [Example 76], the minimal effective concentration with interferon (α) (Homo sapiens, PBMC) is over 10 µM; in assay [1] (Homo sapiens, PBMC) it was over 10 µM.

For `COCCc1nc2c(N)nc3ccccc3c2n1CCCCNS(=O)(=O)NCc1ccccc1` [Example 231], the minimal effective concentration in the assay on interferon (α) (Homo sapiens, PBMC) was 0.0001 µM; in assay [1] (Homo sapiens, PBMC), 1 µM.

Regarding `CCCCc1nc2c(N)nc3ccccc3c2n1CCCCNS(C)(=O)=O` [Example 36], the results for the minimal effective concentration (in the assay on interferon (α); in assay [1]) were 0.0015 µM and 3.33 µM, respectively.

Take `CCCCc1nc2c(N)nc3c(c2n1CCCCNS(=O)(=O)Cc1ccccc1)CCCC3` [Example 205]: the minimal effective concentration with interferon (α) (Homo sapiens, PBMC) was determined as 0.0001 µM; in assay [1] (Homo sapiens, PBMC) it was 1 µM.

On to `COCCc1nc2c(N)nc3ccccc3c2n1CCCCNS(=O)(=O)Nc1ccccc1` [Example 224], for which the minimal effective concentration came to 0.0001 µM in the assay on interferon (α) (Homo sapiens, PBMC) and 10 µM in assay [1] (Homo sapiens, PBMC).

For the compound `COCCc1nc2c(N)nc3ccccc3c2n1CCCCNS(=O)(=O)c1ccc(C#N)cc1` [Example 160], the minimal effective concentration in the assay with interferon (α) (Homo sapiens, PBMC) was 0.001 µM; in assay [1] (Homo sapiens, PBMC) it was 1 µM.

`COCCc1nc2c(N)nc3ccccc3c2n1CCCCNS(=O)(=O)c1cccc(Br)c1` [Example 184]: the minimal effective concentration amounted to 0.0001 µM in the assay on interferon (α) (Homo sapiens, PBMC) and 1 µM in assay [1] (Homo sapiens, PBMC).

With `CCCCc1nc2c(N)nc3ccccc3c2n1CCNS(=O)(=O)/C=C/c1ccccc1` [Example 29], the minimal effective concentration in the assay on interferon (α) (Homo sapiens, PBMC) worked out at 0.37 µM; in assay [1] (Homo sapiens, PBMC), 10 µM.

Turning to `CCCCc1nc2c(N)nc3ccccc3c2n1CCNS(=O)(=O)c1c(C)cc(C)cc1C` [Example 26], the minimal effective concentration in the assay with interferon (α) (Homo sapiens, PBMC) was 10 µM; in assay [1] (Homo sapiens, PBMC), over 30 µM.

Take `CCCCc1nc2c(N)nc3ccccc3c2n1CCCCNS(C)(=O)=O` [Example 6, N^1-[4-(4-Amino-2-butyl-1H-imidazo[4,5-c]quinolin-1-yl)butyl]methanesulfonamide]: the minimal effective concentration is recorded as 0.00017 µM in the assay with interferon (α) and 1.11 µM in assay [1].

With `CCCS(=O)(=O)NCCCCn1c(CCOC)nc2c(N)nc3ccccc3c21` [Example 116], the minimal effective concentration with interferon (α) (Homo sapiens, PBMC) stood at 0.001 µM; in assay [1] (Homo sapiens, PBMC) it was 1 µM.

With `CCCCc1nc2c(N)nc3ccccc3c2n1CCCCNS(=O)(=O)/C=C/c1ccccc1` [Example 50], the minimal effective concentration in the assay with interferon (α) (Homo sapiens, PBMC) is 0.12 µM; in assay [1] (Homo sapiens, PBMC), over 30 µM.

For `COCCc1nc2c(N)nc3ccccc3c2n1CCCCNS(=O)(=O)N[C@H](C)c1ccccc1` [Example 226], the minimal effective concentration was 0.0001 µM with interferon (α) (Homo sapiens, PBMC) and 0.1 µM in assay [1] (Homo sapiens, PBMC).

Turning to `Cc1cc(C)c(S(=O)(=O)NCCCCn2cnc3c(N)nc4c(c32)CCCC4)c(C)c1` [Example 63], the minimal effective concentration in the assay with interferon (α) (Homo sapiens, PBMC) is over 30 µM; in assay [1] (Homo sapiens, PBMC), over 30 µM.

On to `COCCc1nc2c(N)nc3ccccc3c2n1CCCCNS(=O)(=O)C[C@]12CCC(CC1=O)C2(C)C` [Example 148], for which the minimal effective concentration with interferon (α) (Homo sapiens, PBMC) was 0.0001 µM; in assay [1] (Homo sapiens, PBMC), 1 µM.

With `CCCCc1nc2c(N)nc3ccccc3c2n1CCCCNS(=O)(=O)c1ccc(Cl)cc1Cl` [Example 92], the minimal effective concentration in the assay with interferon (α) (Homo sapiens, PBMC) stood at 0.1 µM; in assay [1] (Homo sapiens, PBMC) it was 10 µM.

As to `CCCCc1nc2c(N)nc3ccccc3c2n1CCNS(=O)(=O)c1cccc2cccnc12` [Example 30], the minimal effective concentration with interferon (α) (Homo sapiens, PBMC) is 1.11 µM; in assay [1] (Homo sapiens, PBMC), over 30 µM.

`CCCCc1nc2c(N)nc3ccccc3c2n1CCCCNS(=O)(=O)c1cccc2ccccc12` [Example 41]: the minimal effective concentration in the assay with interferon (α) (Homo sapiens, PBMC) was 0.01 µM; in assay [1] (Homo sapiens, PBMC), over 30 µM.

As for `CCCCc1nc2c(N)nc3c(c2n1CCCCNS(=O)(=O)C(C)C)CCCC3` [Example 203], the minimal effective concentration in the assay with interferon (α) (Homo sapiens, PBMC) worked out at 0.0001 µM; in assay [1] (Homo sapiens, PBMC), 1 µM.

For the compound `CCCCCCCCCCCCCCCCS(=O)(=O)NCCCCn1c(CCCC)nc2c(N)nc3ccccc3c21` [Example 75], the minimal effective concentration in the assay with interferon (α) (Homo sapiens, PBMC) was over 10 µM; in assay [1] (Homo sapiens, PBMC) it was over 10 µM.

With `CCCCS(=O)(=O)NCCCCn1c(CCOC)nc2c(N)nc3ccccc3c21` [Example 117], the minimal effective concentration is 0.0001 µM in the assay on interferon (α) (Homo sapiens, PBMC) and 1 µM in assay [1] (Homo sapiens, PBMC).

As to `CCCCc1nc2c(N)nc3ccccc3c2n1CCCCNS(=O)(=O)c1ccc(OC)c(OC)c1` [Example 81], the minimal effective concentration in the assay with interferon (α) (Homo sapiens, PBMC) is 0.001 µM; in assay [1] (Homo sapiens, PBMC), 1 µM.

As for `CCCCc1nc2c(N)nc3ccccc3c2n1CCNS(=O)(=O)c1cccc2c(N(C)C)cccc12` [Example 33], the minimal effective concentration was found to be 1.11 µM with interferon (α) (Homo sapiens, PBMC) and 10 µM in assay [1] (Homo sapiens, PBMC).

With `CCCCc1nc2c(N)nc3ccccc3c2n1CCCCNS(=O)(=O)c1ccc(Cl)s1` [Example 101], the minimal effective concentration with interferon (α) (Homo sapiens, PBMC) was found to be 0.01 µM; in assay [1] (Homo sapiens, PBMC), 10 µM.

`CCCCc1nc2c(N)nc3c(c2n1CCCCNS(C)(=O)=O)CCCC3` [Example 202]: the minimal effective concentration was determined as 0.0001 µM in the assay with interferon (α) (Homo sapiens, PBMC) and 1 µM in assay [1] (Homo sapiens, PBMC).

In the case of `CCCCc1nc2c(N)nc3ccccc3c2n1CCCCNS(=O)(=O)c1cccs1` [Example 44], the minimal effective concentration amounted to 0.0015 µM in the assay on interferon (α) and 1.11 µM in assay [1].

Turning to `COCCc1nc2c(N)nc3ccccc3c2n1CCCCNS(=O)(=O)C[C@@]12CCC(CC1=O)C2(C)C` [Example 200], the minimal effective concentration in the assay with interferon (α) (Homo sapiens, PBMC) is 0.01 µM; in assay [1] (Homo sapiens, PBMC) it was 0.1 µM.

`COCCc1nc2c(N)nc3ccccc3c2n1CCCCNS(=O)(=O)c1ccc(OC(F)(F)F)cc1` [Example 154]: the minimal effective concentration in the assay with interferon (α) (Homo sapiens, PBMC) worked out at 0.001 µM; in assay [1] (Homo sapiens, PBMC), 10 µM.

In the case of `CCOCc1nc2c(N)nc3ccccc3c2n1CCNS(C)(=O)=O` [Example 108], the minimal effective concentration worked out at 0.1 µM in the assay on interferon (α) (Homo sapiens, PBMC) and 10 µM in assay [1] (Homo sapiens, PBMC).

Turning to `CCCCc1nc2c(N)nc3ccccc3c2n1CCCCNS(=O)(=O)c1ccc(Br)s1` [Example 99], the minimal effective concentration in the assay on interferon (α) (Homo sapiens, PBMC) worked out at 0.1 µM; in assay [1] (Homo sapiens, PBMC) it was 10 µM.

For `COCCc1nc2c(N)nc3c(c2n1CCCCNS(=O)(=O)C[C@@]12CCC(CC1=O)C2(C)C)CCCC3` [Example 212], the minimal effective concentration came out at 0.0001 µM in the assay with interferon (α) (Homo sapiens, PBMC) and 0.01 µM in assay [1] (Homo sapiens, PBMC).

On to `COCCc1nc2c(N)nc3ccccc3c2n1CCCCNS(=O)(=O)c1ccc(C)cc1` [Example 159], for which the minimal effective concentration with interferon (α) (Homo sapiens, PBMC) worked out at 0.0001 µM; in assay [1] (Homo sapiens, PBMC), 0.1 µM.

Take `CCCCc1nc2c(N)nc3ccccc3c2n1CCNS(=O)(=O)c1cc(Br)ccc1OC` [Example 24]: the minimal effective concentration in the assay on interferon (α) (Homo sapiens, PBMC) is 0.12 µM; in assay [1] (Homo sapiens, PBMC) it was 30 µM.

For `COCCc1nc2c(N)nc3ccccc3c2n1CCCCNS(=O)(=O)c1ccc(Cl)cc1` [Example 128], the minimal effective concentration in the assay with interferon (α) (Homo sapiens, PBMC) is 0.0001 µM; in assay [1] (Homo sapiens, PBMC), 1 µM.

For `Nc1nc2c(c3c1ncn3CCCCNS(=O)(=O)c1cccc3ccccc13)CCCC2` [Example 70], the minimal effective concentration in the assay with interferon (α) (Homo sapiens, PBMC) is over 30 µM; in assay [1] (Homo sapiens, PBMC), over 30 µM.

Consider `CCCCc1nc2c(N)nc3ccccc3c2n1CCCCNS(=O)(=O)c1ccc(OC)cc1` [Example 37], for which the minimal effective concentration worked out at 0.01 µM in the assay with interferon (α) (Homo sapiens, PBMC) and 1.11 µM in assay [1] (Homo sapiens, PBMC).

In the case of `COCCc1nc2c(N)nc3ccccc3c2n1CCCCNS(=O)(=O)c1ccc(S(C)(=O)=O)cc1` [Example 161], the minimal effective concentration with interferon (α) (Homo sapiens, PBMC) was 0.01 µM; in assay [1] (Homo sapiens, PBMC), 10 µM.
